Read-outs that look alike come from different tables or passages of the source.
Assays:
human CB2 = human CB2 (Homo sapiens, UniProt P34972); assay: Cyclic AMP assay (HTRF), CHO cells expressing human CB2; assay type: cell-based
Protocol: (§1) Chinese Hamster Ovary cells (CHO) expressing human CB1 or human CB2 (3.3×10^5 cells/ml) were preincubated for 15 min at room temperature with tested agonist and 3-isobutyl-1-methylxanthine (IBMX; 200 μM) in phosphate buffered saline containing 1 mg/ml BSA (assay buffer) followed by 30 min incubation with forskolin in a total volume of 10 μl. The optimal forskolin concentration for each cell line was established in a separate experiment and adjusted to stimulate 70% of maximal cAMP response. cAMP content was measured using an HTRF assay (CisBio) according to the manufacturer's two step protocol.

human CB1 = human CB1 (Homo sapiens, UniProt P21554); assay: Cyclic AMP assay (HTRF), CHO cells expressing human CB1; assay type: cell-based
Sequence of human CB1 (P21554 whole entry): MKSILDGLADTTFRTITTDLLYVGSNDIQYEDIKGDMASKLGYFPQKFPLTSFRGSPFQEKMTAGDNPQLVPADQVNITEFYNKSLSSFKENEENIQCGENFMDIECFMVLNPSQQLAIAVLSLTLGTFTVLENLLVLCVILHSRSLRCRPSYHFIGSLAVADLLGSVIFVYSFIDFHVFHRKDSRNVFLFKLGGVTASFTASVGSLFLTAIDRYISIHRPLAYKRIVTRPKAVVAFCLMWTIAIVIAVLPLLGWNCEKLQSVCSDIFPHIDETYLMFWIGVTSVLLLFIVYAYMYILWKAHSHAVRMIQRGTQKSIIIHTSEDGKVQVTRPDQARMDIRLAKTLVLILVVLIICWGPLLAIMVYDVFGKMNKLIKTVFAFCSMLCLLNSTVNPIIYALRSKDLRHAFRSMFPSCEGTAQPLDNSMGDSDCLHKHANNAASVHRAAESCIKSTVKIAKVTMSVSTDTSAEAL
Protocol: as §1

[1] = IP of tested agonist, CHO cells expressing human CB2, forskolin-stimulated cAMP, HTRF, read-out: CB2 (HTRF)
[2] = IP of tested agonist, CHO cells expressing human CB1, forskolin-stimulated cAMP, HTRF, read-out: CB1 (HTRF)

Sequence of human CB2 (P34972 whole entry): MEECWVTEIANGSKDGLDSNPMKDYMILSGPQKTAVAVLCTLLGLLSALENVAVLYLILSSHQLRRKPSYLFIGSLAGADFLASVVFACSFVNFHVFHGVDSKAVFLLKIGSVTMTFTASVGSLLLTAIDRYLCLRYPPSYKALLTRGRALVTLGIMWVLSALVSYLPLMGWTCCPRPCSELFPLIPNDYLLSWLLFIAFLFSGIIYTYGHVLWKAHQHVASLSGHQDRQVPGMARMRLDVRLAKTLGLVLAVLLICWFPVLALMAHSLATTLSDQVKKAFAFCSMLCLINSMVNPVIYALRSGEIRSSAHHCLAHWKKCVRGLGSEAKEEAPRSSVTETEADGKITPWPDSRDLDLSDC

SMILES | EC50 (human CB2; [1]) | EC50 (human CB1; [2]) | EC50 (human CB2) | EC50 (human CB1)
N#Cc1ccc(-c2ncccc2-c2nc3cc(Cl)c(Cl)cc3[nH]2)cc1 [IV-5] | 0.258 µM | > 17 µM | – | –
CCCCOc1ncccc1-c1nc(-c2c(Cl)cccc2Cl)no1 [Example I-5] | – | – | 0.004 µM | 0.114 µM
CCCCOc1ncccc1-c1nc(-c2cccc(Cl)c2Cl)no1 [Example I-4] | – | – | 0.003 µM | 0.309 µM
COCCOc1ncccc1-c1nc(-c2cccc(Cl)c2)no1 [II-2] | 0.272 µM | > 17 µM | – | –
CCCCOc1ncccc1-c1nc(-c2ccc(C(F)(F)F)cc2)c[nH]1 [III-3] | 0.109 µM | > 17 µM | – | –
CCCCOc1ncccc1-c1nc(-c2ccc(Cl)cc2)no1 [Example I-3] | – | – | 0.085 µM | > 17 µM
CS(=O)(=O)C1CCN(c2ncccc2-c2cc(-c3cccc(F)c3)n[nH]2)CC1 [Example V-4] | 0.068 µM | 8.75 µM | – | –
NC(=O)C1CCN(c2ncccc2-c2cc(-c3cccc(F)c3)n[nH]2)CC1 [Example V-5] | 0.717 µM | > 17 µM | – | –
CC(C)(C)COc1ncccc1-c1nc(-c2cccc(Cl)c2)no1 [II-5] | 0.508 µM | > 17 µM | – | –
CCCCOc1ncccc1-c1nc2ccccc2[nH]1 [IV-2] | 0.11 µM | > 17 µM | – | –
CCCCOc1ncccc1-c1nc(-c2ccccc2)c[nH]1 [III-2] | 0.9 µM | > 17 µM | – | –
